EP4789664A1, “NOVEL ANTI[…] AND USES THEREOF” (priority 2025, dated 2026)

Molecular target: T1, IN-GCN2 interaction (UniProt P04585+Q9P2K8)
T1 construct: active truncated version of the human protein (192-1024); Recombinant full-length HIV-1 IN was produced in-house; purchased SignalChem (GCN2); IN made in-house in E. coli BL21(DE3)pLysS E12-11G; host or cells: BL21(DE3)pLysS for IN
Assay: biochemical
Assay type: binding, HIV-1 IN; human GCN2
Conditions: read-out: inhibition of the IN-GCN2 interaction at 100 µM
Description: The interaction between IN and GCN2 was monitored using the AlphaLISA technology (Revvity). The reaction was performed in a shallow-well 384-well microplate (Revvity, AlphaPlate-384SW, ProxiPlate) with 24 nM GST-GCN2, 700 nM 6xHis-IN, 10 µg/mL of nickel chelate acceptor beads and glutathione donor beads, the test compound or an equivalent amount of DMSO (solvent at 10 % final concentration) in a buffer composed of 50 mM Tris-HCl pH 7.5, 1 mM DTT, 0.05% Tween 20, 0.1% bovine serum albumin (BSA) and 40 mM NaCl (final volume 15µl). First, the reaction was initiated by adding the various components except the donor beads. After 20 minutes at room temperature, the donor beads were added and the plate sealed. Data acquisition was performed 120 minutes later using a Victor Nivo Multimode Plate Reader (Revvity). Means, standard deviations and graphical representation were generated using Prism 8.4.3 software (GraphPad).
420 molecules from the National Cancer Institute Developmental Therapeutics Program (NCI DTP) were screened as modulators of the IN-GCN2 interaction in vitro. […] Experiments were conducted onto two separate AlphaPlates 384-shallow well, with 180 and 240 molecules respectively and 12 DMSO control each.

T1 sequence (Q9P2K8 192-1024, other chains not shown): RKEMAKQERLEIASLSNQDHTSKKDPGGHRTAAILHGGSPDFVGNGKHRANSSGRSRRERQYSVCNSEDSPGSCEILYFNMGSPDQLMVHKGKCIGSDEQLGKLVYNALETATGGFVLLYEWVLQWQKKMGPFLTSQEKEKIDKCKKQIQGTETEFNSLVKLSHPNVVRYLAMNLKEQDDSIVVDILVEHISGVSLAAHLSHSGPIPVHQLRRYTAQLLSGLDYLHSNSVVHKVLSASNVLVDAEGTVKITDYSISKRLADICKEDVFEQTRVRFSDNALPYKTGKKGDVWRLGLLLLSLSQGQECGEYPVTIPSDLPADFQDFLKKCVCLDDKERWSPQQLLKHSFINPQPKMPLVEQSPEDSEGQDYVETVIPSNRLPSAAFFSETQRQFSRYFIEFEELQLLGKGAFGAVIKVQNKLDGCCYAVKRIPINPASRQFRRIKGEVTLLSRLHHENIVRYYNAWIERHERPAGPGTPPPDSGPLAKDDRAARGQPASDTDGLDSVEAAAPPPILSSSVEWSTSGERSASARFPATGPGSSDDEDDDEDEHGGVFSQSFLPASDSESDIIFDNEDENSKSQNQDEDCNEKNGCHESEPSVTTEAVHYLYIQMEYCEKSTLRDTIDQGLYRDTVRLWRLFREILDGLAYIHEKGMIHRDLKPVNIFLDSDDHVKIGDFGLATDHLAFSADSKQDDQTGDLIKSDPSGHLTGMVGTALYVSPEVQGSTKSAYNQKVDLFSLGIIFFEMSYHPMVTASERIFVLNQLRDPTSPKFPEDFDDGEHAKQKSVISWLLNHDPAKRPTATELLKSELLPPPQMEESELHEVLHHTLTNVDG

Question: With `COc1cc2c(cc1OC)c1c(OC)c(OC)cc3c1c1c2sc(=S)n1CC3` [III-3a, 7,8,10,11-Tetramethoxy-4,5-dihydrodibenzo[de,g]-[1,3]thiazolo[5,4,3-ij]quinoline-2-thione] as the compound, how does the inhibition at 100 µM read?
Answer: The inhibition at 100 µM was about 80%.

Question: Which inhibition at 100 µM does the source give for `CCOC(=O)N1CCc2cc(OC)c(OC)c3c2c1cc1cc(OC)c(OC)cc13` [III-3d, Dibenzo[de,g]quinoline-6-carboxylic acid, 4,5-dihydro-1,2,9,10-tetramethoxy-, ethyl ester] here?
Answer: Its inhibition at 100 µM is about 55%.
